One experiment has as its system IGF-1R. Briefly: IGF-1-induced IGF-1R phosphorylation. Format: cell-based. The conditions noted are these: in the presence of 0.3 mM DTT; Chang liver cells; FIG. 8c. As for the experimental part: (§1) Surface receptor functional assessment: After treatment, cells was incubated with 500 ng/ml Alexa 488-labeled EGF in DMEM containing 1% BSA, 50 μg/ml Alexa-488-labeled transferrin for 10 min, or 10 μg/ml Alexa 488-labeled AcLDL for 30 min in growth medium, and then washed with cold HBSS four times before fixation with formaldehyde at room temperature. Cells were also trypsinzed and ligand uptake quantified by flow cytometry (FACS Calibur). For protein phosphorylation studies, cell lysates were also collected 5 min after stimulation with ligands. Western blotting and indirect immunofluorescence: Cells were lysed in cell lysis buffer (Cell Signaling, Danvers, Mass.). Lysate protein concentration was measured by the Biorad DC protein assay. Equal amounts of proteins were separated by MOPS-SDS-PAGE, then transferred to poly(vinylidene difluoride) membranes (Invitrogen, Carlsbad, Calif.). Membranes were then blocked and the signal detected with a BM Chemiluminescence Blotting kit (Roche Diagnostics, Basel, Switzerland), BM POD precipitating blotting substrate (Roche Diagnostics, Basel, Switzerland), or Supersignal West Femto blotting kit (Pierce, Rockford, Ill.) according to the manufacturer's instructions. […] For indirect immunofluorescence studies, formaldehyde-fixed cells were permeablized with 0.3% Triton for 10 min, blocked with 1% BSA for 30 min, then detected with antibodies. […]

A further experiment relates to EGFR. Description: EGF uptake and EGF-induced EGFR phosphorylation. Format: cell-based. The note with it: Chang liver cells. As for the experimental part: as §1
In a further experiment the test system is CD71. Description: transferrin uptake (mediated by CD71) by HPAECs. Type of experiment: cell-based, human. The note with it: 0.5 mM DTT, 30 min, flow cytometry. As for the experimental part: (§2) Surface receptor functional assessment: After treatment, cells was incubated with 500 ng/ml Alexa 488-labeled EGF in DMEM containing 1% BSA, 50 μg/ml Alexa-488-labeled transferrin for 10 min, or 10 μg/ml Alexa 488-labeled AcLDL for 30 min in growth medium, and then washed with cold HBSS four times before fixation with formaldehyde at room temperature. Cells were also trypsinzed and ligand uptake quantified by flow cytometry (FACS Calibur). For protein phosphorylation studies, cell lysates were also collected 5 min after stimulation with ligands.
(In flow cytometry, cells or beads pass a laser one at a time.)

The next experiment has as its system FGFR. Description: bFGF-induced FGFR phosphorylation. Format: cell-based. The conditions noted are these: in the presence of 0.3 mM DTT; Chang liver cells; FIG. 8d. As for the experimental part:
as §1

In a further experiment the test system is LOX-1. Briefly: acetylated LDL (AcLDL) uptake by HPAECs. Type of experiment: cell-based, human. The conditions noted are these: for uptake of acetylated LDL (AcLDL) by HPAECs: mitochondrial inhibitors for 8 hr, FIG. 5. The procedure: as §2
Experiment [1] relates to protein disulfides in BAECs. Description: in situ fluorescence imaging of cellular protein disulfides (BAECs). Type of experiment: cell-based, Bovine. The note with it: for protein disulfide formation: BAECs, mitochondrial inhibitors, FIG. 1b. As for the experimental part:
(§3) Detection of cellular disulfide-containing proteins: We developed a method for imaging disulfide-containing proteins in situ. Methanol-fixed cells were treated with 200 mM iodoacetamide in 100 mM Tris, pH 8.3, 5 mM EDTA at 37° C. for 1 hour to block thiols. The cells were then washed six times with Tris-buffered saline, pH 8.0, 5 mM EDTA, after which they were incubated with 5 mM EDTA, 1 mM tris(2-carboxyethyl) phosphine, pH 8.3, at room temperature to reduce disulfides and with 1 mM 5-iodoacetamidofluorescein (5-IAF) in 100 mM Tris to label the resulting thiols for 1 hour. Excess dye was removed by washing the cells repeatedly with TBS. Stained cells fixed to slides were then treated with Prolonged Antifade Mounting Medium, and cell nuclei were counterstained with DAPI. Fluorescent images were taken with a Nikon fluorescence TE 2000 microscope. Fluorescence intensity was quantified by subtracting background fluorescence, then integrating the image with the NIH IMAGEJ program and normalizing by cell number as determined by DAPI fluorescence. Four fields magnified×20 were analyzed per experiment, with 100-200 cells counted per sample.

A further experiment relates to vWF. Briefly: multimeric vWF immunoblot / immunofluorescence in HPAECs. Type of experiment: cell-based, human. The conditions noted are these: FIG. 1i. The procedure: (§4) Western blotting and indirect immunofluorescence: Cells were lysed in cell lysis buffer (Cell Signaling, Danvers, Mass.). Lysate protein concentration was measured by the Biorad DC protein assay. Equal amounts of proteins were separated by MOPS-SDS-PAGE, then transferred to poly(vinylidene difluoride) membranes (Invitrogen, Carlsbad, Calif.). Membranes were then blocked and the signal detected with a BM Chemiluminescence Blotting kit (Roche Diagnostics, Basel, Switzerland), BM POD precipitating blotting substrate (Roche Diagnostics, Basel, Switzerland), or Supersignal West Femto blotting kit (Pierce, Rockford, Ill.) according to the manufacturer's instructions. For protein inter-subunit disulfide bond detection, cells were lysed in cell lysis buffer containing 200 mM N-ethyl-maleimide and incubated at 37° C. for 1 hr. LDS sample buffer with or without DTT was added to cell lysates, and proteins were separated by MOPS-SDS-PAGE. For indirect immunofluorescence studies, formaldehyde-fixed cells were permeablized with 0.3% Triton for 10 min, blocked with 1% BSA for 30 min, then detected with antibodies. Primary antibodies used in this study include monoclonal or polyclonal antibodies against CD98, PECAM, endoglin, vWF, PDI, pEGFR, EGFR, FGFR, and CD71 from Santa Cruz; against actin, from Sigma, St. Louis, Mo.; against pFGFR, pIGF1R, and IGF1R from Cell Signaling (Danvers, Mass.); against thioredoxin, MnSOD, catalase, and GAPDH from Abcam, Cambridge, Mass.; and against LOX-1 from Serotec, Raleigh, N.C. All secondary fluorescent-labeled or horseradish peroxidase-conjugated antibodies were obtained from Jackson Immunoresearch, West Grove, Pa.
For orientation: A western blot detects proteins with antibodies after separation by electrophoresis.

The subject of the next experiment is GRP78. Description: ER stress marker induction, GRP78. Format: cell-based. The conditions noted are these: compared to tunicamycin and thapsigargin treatments. The procedure: as §4, with “Primary antibodies used in this study include monoclonal or polyclonal antibodies against CD98, PECAM, endoglin, vWF, PDI, pEGFR, EGFR, FGFR, and CD71 from Santa Cruz; against actin, from Sigma, St. Louis, Mo.; against pFGFR, pIGF1R, and IGF1R from Cell Signaling (Danvers, Mass.); against thioredoxin, MnSOD, catalase, and GAPDH from Abcam, Cambridge, Mass.; and against LOX-1 from Serotec, Raleigh, N.C. All secondary fluorescent-labeled or horseradish peroxidase-conjugated antibodies were obtained from Jackson Immunoresearch, West Grove, Pa.” left out

The next experiment has as its system HPAECs. Description: mitochondrial membrane potential by JC-1 fluorescence. Format: cell-based, human. The note with it: after CCCP treatment, FIG. 5b. As for the experimental part:
Mitochondrial membrane potential measurement: Cells were incubated with medium containing 1 ug/ml JC-1 for […], washed with HBSS, and then observed by fluorescence microscopy immediately. Alternatively, fluorescence was measured with a GEMINI XPS microplate reader, with an excitation wavelength of 488 nm and an emission wavelength of 536 nm, as well as an excitation wavelength of 528 nm and an emission wavelength 590 nm. Mitochondrial membrane potential was expressed as the ratio of emission at 590 nm to that at 536 nm.

The test system of another experiment is GRP94. Briefly: ER stress marker induction, GRP94. Format: cell-based. The note with it: compared to tunicamycin and thapsigargin treatments. As for the experimental part:
as §4, with “Primary antibodies used in this study include monoclonal or polyclonal antibodies against CD98, PECAM, endoglin, vWF, PDI, pEGFR, EGFR, FGFR, and CD71 from Santa Cruz; against actin, from Sigma, St. Louis, Mo.; against pFGFR, pIGF1R, and IGF1R from Cell Signaling (Danvers, Mass.); against thioredoxin, MnSOD, catalase, and GAPDH from Abcam, Cambridge, Mass.; and against LOX-1 from Serotec, Raleigh, N.C. All secondary fluorescent-labeled or horseradish peroxidase-conjugated antibodies were obtained from Jackson Immunoresearch, West Grove, Pa.” left out

Experiment [2] concerns protein disulfides in Chang liver cells. Briefly: in situ fluorescence imaging of cellular protein disulfides (Chang liver cells). The conditions noted are these: CCCP for 4 hr, FIG. 1a. Type of experiment: cell-based. As for the experimental part:
as §3

A further experiment concerns Endoglin. Briefly: endoglin disulfide-dependent detection and localization in HPAECs. Format: cell-based, human. The conditions noted are these: non-reducing immunoblot; FIG. 1j. As for the experimental part: as §4, with “Primary antibodies used in this study include monoclonal or polyclonal antibodies against CD98, PECAM, endoglin, vWF, PDI, pEGFR, EGFR, FGFR, and CD71 from Santa Cruz; against actin, from Sigma, St. Louis, Mo.; against pFGFR, pIGF1R, and IGF1R from Cell Signaling (Danvers, Mass.); against thioredoxin, MnSOD, catalase, and GAPDH from Abcam, Cambridge, Mass.; and against LOX-1 from Serotec, Raleigh, N.C. All secondary fluorescent-labeled or horseradish peroxidase-conjugated antibodies were obtained from Jackson Immunoresearch, West Grove, Pa.” left out

In another experiment the test system is CD98. Briefly: CD98 heterodimer blot in Chang liver cells. Format: cell-based. The note with it: mitochondrial inhibitor treated. As for the experimental part:
as §4, with “Primary antibodies used in this study include monoclonal or polyclonal antibodies against CD98, PECAM, endoglin, vWF, PDI, pEGFR, EGFR, FGFR, and CD71 from Santa Cruz; against actin, from Sigma, St. Louis, Mo.; against pFGFR, pIGF1R, and IGF1R from Cell Signaling (Danvers, Mass.); against thioredoxin, MnSOD, catalase, and GAPDH from Abcam, Cambridge, Mass.; and against LOX-1 from Serotec, Raleigh, N.C. All secondary fluorescent-labeled or horseradish peroxidase-conjugated antibodies were obtained from Jackson Immunoresearch, West Grove, Pa.” left out

“Also recorded” adds a separate entry of the source.

Consider `O[C@H](CS)[C@H](O)CS` (racemic) [DTT, dithiothreitol], for which the “phosphorylation of IGF-1Rβ” value with IGF-1R was “completely inhibited”. Also, the “uptake of EGF” value with EGFR (0.5 mM DTT, 30 min, flow cytometry) is “did not change”. In addition, in the experiment with EGFR (in the presence of 0.5 mM DTT), the “EGFR activation by EGF” value was “fully activated”. In the experiment with CD71, the uptake of transferrin result was “did not change”. Further, in the experiment with FGFR, the “phosphorylation of FGFR” value is “completely inhibited”. For the same compound, in the experiment on LOX-1 (0.5 mM DTT, 30 min, flow cytometry, FIG. 8a), the “uptake of AcLDL by HPAECs” value was “decreased”.

`CCCCCC[C@H]1C(=O)O[C@H](C)[C@H](NC(=O)c2cccc(NC=O)c2O)C(=O)O[C@@H](C)[C@@H]1OC(=O)CC(C)C` [ATM, antimycin A]: in experiment [1], the protein disulfide formation entry is “least effective”.

Regarding `CCCCS(=N)(=O)CCC(N)C(=O)O` (stereo not shown) [BSO, buthionine sulfoximine], in the experiment with vWF, the “disulfide-linked multimeric vWF” value is “increased”.

With `N#CC(C#N)=NNc1cccc(Cl)c1` [CCCP, carbonylcyanide m-chlorophenylhydrazone], the protein disulfide formation result in experiment [1] is given as “decreased; also recorded: most effective”. Besides, the “effect on protein disulfide formation in MitoCAT overexpressing cells” value in [1] (CCCP for 8 hrs, FIG. 4) is “no longer had any effect”. The “upregulation of GRP78” value with GRP78 is listed as “did not induce significant upregulation”. In the experiment on vWF, the “disulfide-linked multimeric vWF” value was “dissociation of disulfide-linked multimeric vWF”. Further, the “mitochondrial membrane potential (MMP)” value in the experiment on HPAECs was “immediate loss”. In addition, in the experiment on GRP94, the “upregulation of GRP94” value was “did not induce significant upregulation”. The “overall protein disulfide signal” value in [2] is on record as “decreased”. In addition, in the experiment on Endoglin, the “endoglin detected by P4A4 antibody” value is on record as “less endoglin was detected”. Besides, the “heterodimer CD98” value in the experiment on CD98 is “remained intact”. Moreover, the “uptake of acetylated LDL (AcLDL) by HPAECs” value with LOX-1 is “decreased”.

As to `C[C@]12CC[C@H](O)CC1=CC[C@@H]1[C@@H]2CC[C@]2(C)C(=O)CC[C@@H]12` [DHEA, dehydroepiandrosterone], the “disulfide-linked multimeric vWF” value in the experiment with vWF is given as “increased”.

Consider `O=C(CC(=O)C(F)(F)F)c1cccs1` [TTFA, thienoyltrifluoroacetone], for which the protein disulfide formation result in experiment [1] is listed as “decreased”. In addition, the “endoglin detected by P4A4 antibody” value in the experiment with Endoglin is reported as “less endoglin was detected”. In addition, in the experiment with LOX-1, the “uptake of acetylated LDL (AcLDL) by HPAECs” value is on record as “decreased”.

With `O=c1c2ccccc2[se]n1-c1ccccc1` [ebselen], in experiment [1] (FIG. 1c, p<0.01, cell type not stated), the “inhibition of disulfide formation” value amounted to 55%.

Turning to `CO/C(=C/C(N)=O)[C@H](C)[C@H](/C=C/c1csc(-c2csc([C@@H](C)/C=C/C=C/C(C)C)n2)n1)OC` [myxothiazol], in [1], the protein disulfide formation entry is listed as “decreased”.

Consider `C=C(C)[C@H]1Cc2c(ccc3c2O[C@@H]2COc4cc(OC)c(OC)cc4[C@@H]2C3=O)O1` [rotenone], for which, in experiment [1], the protein disulfide formation entry is recorded as “decreased”.

The record behind these values is patent US20080299542A1, “IDENTIFICATION OF OXIDATIVELY MODIFIED PEPTIDE SEQUENCES IN THE PROTEOME (LOSCALZO)” (priority 2007, published 2008).
